Test results reported in paper PMC7026589, “Sensitive CometChip assay for screening potentially carcinogenic DNA adducts by trapping DNA repair intermediates” (Nucleic Acids Research, 2019).
Read-outs that look alike come from different tables or passages of the source.

Columns and labels:
HepaRG™ cells = tested on: HepaRG™ cells
From the text: Cryopreserved HepaRG™ (HPRGC10), a terminally differentiated hepatic cell line, was purchased from ThermoFisher Scientific (Waltham, MA). HepaRG™ was thawed and cultured according to manufacturer's instructions. Briefly, the general purpose working medium was WEM supplemented with 1X GlutaMAX™ and 1X HepaRG™ Thaw, Plate, & General Purpose Medium Supplement. The metabolism working medium was WEM supplemented with 1X GlutaMAX™ and HepaRG™ Maintenance/Metabolism Medium Supplement. HepaRG™ cells were thawed in the general purpose working medium and plated in a 96-well plate coated with collagen I at 100 000 cells/well. One day after plating, the general purpose working medium was changed to the metabolism working medium. The metabolism working medium was renewed on day 4 and day 6 after plating. On day 7, the cells were treated in the metabolism working medium.
To load cells into microwells, ∼2000–200 000 cells in suspension were placed into each macrowell, and the chip was incubated at 37°C in the presence of 5% CO2 for 15 min. Cell were loaded into microwells by gravity, and excess cells were then washed off with PBS by shear force. The chip was covered with a layer of overlay agarose (1% w/v low-melting point agarose solution in PBS, kept molten at 43°C until use). For complete gelation of the overlay agarose, the chip was kept at room temperature for two minutes followed by 2 min at 4°C.
The alkaline comet assay was performed as previously ([15],[79]). Sodium chloride (NaCl, 7581), disodium EDTA (Na2EDTA, 4931), and sodium hydroxide pellets (NaOH, 7708) were purchased from VWR, Radnor, PA. Trizma® base (T1503), Trizma® HCl (T5941) and Triton X-100 (X-100) were obtained from MilliporeSigma, St. Louis, MO. 10 000× SYBR™ Gold nucleic acid gel stain was obtained from ThermoFisher Scientific, Waltham, MA.
The alkaline lysis buffer (pH ∼ 10) was a solution of 2.5 M NaCl, 100 mM Na2EDTA, 10 mM Trizma® base, and 1% (v/v) Triton X-100 dissolved in deionized H2O (dI H2O). […] The neutralization buffer (pH ∼ 7.5) was prepared by dissolving Trizma® HCl in distilled H2O to a final concentration of 0.4 M.
(§1) Cells encapsulated in CometChip were lysed in the alkaline lysis buffer overnight at 4°C. The nuclei were unwound in the alkaline unwinding buffer for 40 min at 4°C, and the DNA was electrophoresed in the same buffer at the same temperature for 30 min at 1 V/cm and ∼300 mA. The CometChip was then washed three times in neutralization buffer by submerging for 5 min each time.
(§2) The DNA on CometChip was stained for 15 min at room temperature with 1× of SYBR™ Gold diluted in PBS, protected from light. Fluorescent images of the comets were captured at 40× magnification using an epifluorescence microscope (Nikon Eclipse 80i, Nikon Instruments, Inc., Melville, NY, USA) with a 480 nm excitation filter. Image acquisition was achieved by automatic scanning using a motorized XY stage. Comet images were automatically analyzed using Guicometanalyzer, a custom software developed in MATLAB (The MathWorks Inc., Natick, MA, USA) as previously described ([15]). For each condition, 100 comets or more were analysed. Outputs from Guicometanalyzer were processed and imported to a spreadsheet (Microsoft Excel, Microsoft Office Suite 2016) using Comet2Excel, an in-house software developed in Python (Python Software Foundation, Python version 2.7.10). Software is freely available upon request.
For this experiment, the comets were analysed using Trevigen® Comet Analysis Software.
A vehicle control condition was included by diluting DMSO in cell culture medium to get a final concentration of 0.5%. Cells were incubated with the test compound for 24 h at 37°C in the presence of 5% CO2.
HepaRG™ were incubated with the test compound for 24 h at 37°C in the presence of 5% CO2. A vehicle control (1% DMSO) was included.

[1] = tested on: primary mouse hepatocytes; settings: WT primary mouse hepatocytes; absence of HU/AraC; 24 h
Experimental: as §1
as §2, with “Outputs from Guicometanalyzer were processed and imported to a spreadsheet (Microsoft Excel, Microsoft Office Suite 2016) using Comet2Excel, an in-house software developed in Python (Python Software Foundation, Python version 2.7.10). Software is freely available upon request.” left out
(§3) Primary mouse hepatocytes were obtained from 10 to 14 weeks old C57Bl6 mice using a standard two-step collagenase liver perfusion procedure with minor changes ([80],[81]). […] Cell viability and cell number were analyzed using an automated Trypan Blue exclusion system [Vi-CELL™ cell counter (Beckman Coulter Life Sciences, Brea, CA)]. […]

Xpa−/− mouse hepatocytes = settings: presence of HU/AraC, 24 h, compared with WT
Experimental: as §1
as §2, with “Outputs from Guicometanalyzer were processed and imported to a spreadsheet (Microsoft Excel, Microsoft Office Suite 2016) using Comet2Excel, an in-house software developed in Python (Python Software Foundation, Python version 2.7.10). Software is freely available upon request.” left out
as §3

CYP1A2 [2] = biological target: T1, CYP1A2 (Homo sapiens, UniProt P05177); assay type: cell-based; parameters: endogenous in cells; settings: HepaRG; B[a]P 24 h
T1 sequence (P05177 whole entry): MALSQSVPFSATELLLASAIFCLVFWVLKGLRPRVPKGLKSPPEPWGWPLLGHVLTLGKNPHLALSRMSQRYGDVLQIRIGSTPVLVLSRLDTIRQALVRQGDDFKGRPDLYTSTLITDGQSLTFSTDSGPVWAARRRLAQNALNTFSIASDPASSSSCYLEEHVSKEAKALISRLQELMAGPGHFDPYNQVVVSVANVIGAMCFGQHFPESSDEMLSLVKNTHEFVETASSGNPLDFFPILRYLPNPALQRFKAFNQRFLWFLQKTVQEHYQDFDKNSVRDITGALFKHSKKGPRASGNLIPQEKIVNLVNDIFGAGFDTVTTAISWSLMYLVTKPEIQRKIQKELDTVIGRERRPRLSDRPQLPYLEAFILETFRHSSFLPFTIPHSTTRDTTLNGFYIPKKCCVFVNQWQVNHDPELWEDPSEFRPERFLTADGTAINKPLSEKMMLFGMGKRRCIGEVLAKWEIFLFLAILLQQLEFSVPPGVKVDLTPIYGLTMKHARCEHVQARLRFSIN
Experimental: (§4) The CYP450-Glo™ CYP3A4 assay with luciferin-IPA (V9001) and the CYP450-Glo™ CYP1A2 assay with luciferin-1A2 (V8421) were purchased from Promega, Madison, WI. The activity levels of CYP3A4 and CYP1A2 in cells were measured according to the manufacturer's protocol for non-lytic cell-based assays. Luminescent signals were recorded using a SpectraMax M2e microplate reader (Molecular Devices, Sunnyvale, CA, USA). Control wells with no cells were included to obtain background luminescence. The net signal for each sample was obtained by subtracting the background luminescence value.
(§5) CYP3A4 or CYP1A2 activity per cell can be obtained by normalizing CYP450-Glo™ values with cell numbers. After a sample was analyzed for CYP3A4 or CYP1A2 activity, the CTG® assay was performed to obtain an estimate of the number of viable cells in the sample. The result from CYP450-Glo™ was then divided by the CTG® value to obtain the average CYP3A4 or CYP1A2 activity per cell.

CYP1A2 [3] = biological target: T1, CYP1A2; assay type: cell-based; parameters: endogenous in cells; host or cells: HepG2; settings: HepG2; B[a]P 24 h
Experimental: as §4, §5

SMILES: c1ccc2c(c1)cc1ccc3cccc4ccc2c1c34 [B[a]P, Benzo[a]pyrene]
- Genotoxicity Alkaline CometChip HepaRG (+ HU + AraC) +/− (HepaRG™ cells): +
- Genotoxicity Alkaline CometChip HepaRG +/− (HepaRG™ cells): −
- SSBs [1]: significant, but relatively small, increase in SSBs
- SSBs (Xpa−/− mouse hepatocytes): not significantly
- CYP1A2 activity level (induction) (CYP1A2 [2]): induced in a dose-dependent manner
- CYP1A2 activity level (induction) (CYP1A2 [3]): induced in a dose-dependent manner
